Measured values: patent US11154565B2, “Process for preparing a stable emulsion comprising one or more avermectins” (GALDERMA HOLDING SA, priority 2015, dated 2021)

Test: Chemical stability of ivermectin in the composition on storage
Assay type: physicochemical
Conditions: composition obtained according to the invention

## ivermectin
Stored for 6 months at 40° C.
  chemical stability of ivermectin: chemically stable
Stored for 12 months at room temperature
  chemical stability of ivermectin: chemically stable
